Active and inactive are the calls of the source. No cut-off for these calls is given here.
How the values were obtained:
4T1 [1] = assay: Phototoxicity against mouse 4T1 cells assessed as cell viability at 0.5 uM preincubated for 4 hrs followed by 1 J/cm2 light irradiation and measured after 24 hrs by MTT assay relative to control; type: functional; conditions: 4T1, light or radiation study, read-out: Activity
4T1 [2] = assay: Antitumor activity against mouse 4T1 cells xenografted in BALB/c mouse assessed as inhibition of tumor volume at 4 mg/kg, iv pretreated for 24 hrs followed by 50 J/cm2 light irradiation and measured at day 22 post dose relative to control; type: functional; conditions: 4T1, light or radiation study
MDA-MB-231 [3] = assay: Phototoxicity against human MDA-MB-231 cells assessed as cell viability at 0.5 uM preincubated for 4 hrs followed by 0.5 to 2 J/cm2 light irradiation and measured after 24 hrs by MTT assay; type: functional, cell-based
4T1 [4] = assay: Antitumor activity against mouse 4T1 cells xenografted in BALB/c mouse assessed as inhibition of tumor volume at 2 mg/kg, iv pretreated for 24 hrs followed by 50 J/cm2 light irradiation and measured at day 22 post dose relative to control; type: functional; conditions: 4T1, light or radiation study
[5] = Dark toxicity against mouse 4T1 cells assessed as cell viability at 0.5 uM after 24 hrs by MTT assay; type: cell-based; conditions: 4t1, 24 h
[6] = Dark toxicity against human MCF7 cells assessed as cell viability at 0.5 uM after 24 hrs by MTT assay; type: cell-based; conditions: mcf7, 24 h
4T1 [7] = assay: Antitumor activity against mouse 4T1 cells xenografted in BALB/c mouse assessed as inhibition of tumor volume at 1 mg/kg, iv pretreated for 24 hrs followed by 50 J/cm2 light irradiation and measured at day 22 post dose relative to control; type: functional; conditions: 4T1, light or radiation study
[8] = Selectivity index, ratio of dark toxicity against human MDA-MB-231 cells at 0.5 uM to phototoxicity against human MDA-MB-231 cells at 0.5 uM; type: cell-based; conditions: read-out: Selectivity Index
[9] = Selectivity index, ratio of dark toxicity against mouse 4T1 cells at 0.5 uM to phototoxicity against mouse 4T1 cells at 0.5 uM; type: cell-based; conditions: read-out: Selectivity Index
[10] = Drug uptake in kidney of BALB/c mouse xenografted with mouse 4T1 cells at 10 mg/kg, iv measured at 12 hrs post injection by IVIS spectrum imaging; type: ADME, organism-based; conditions: in vivo
[11] = Drug uptake in spleen of BALB/c mouse xenografted with mouse 4T1 cells at 10 mg/kg, iv measured at 12 hrs post injection by IVIS spectrum imaging; type: ADME, organism-based; conditions: in vivo
[12] = Drug uptake in heart of BALB/c mouse xenografted with mouse 4T1 cells at 10 mg/kg, iv measured at 12 hrs post injection by IVIS spectrum imaging; type: ADME, organism-based; conditions: in vivo
[13] = Drug uptake in endoplasmic reticulum of human MDA-MB-231 cells at 10 uM after 4 hrs by ER tracker green-based confocal laser scanning microscopic analysis; type: ADME, subcellular; conditions: mda-mb-231, 4 h
MDA-MB-231 [14] = assay: Induction of ROS generation in human MDA-MB-231 cells incubated with DCF-DA probe for 30 mins by flow cytometric analysis (reference value: 2.1%); type: cell-based; conditions: mda-mb-231, 0.5 h
MDA-MB-231 [15] = assay: Induction of ROS generation in human MDA-MB-231 cells incubated with DCF-DA probe for 30 mins followed by 2 J/cm2 light irradiation and measured after 1 hr by flow cytometric analysis (reference value: 2.1%); type: functional
[16] = Tmax in tumor of BALB/c mouse xenografted with mouse 4T1 cells at 10 mg/kg, iv measured after […] by fluorescence assay; type: ADME, organism-based, Neoplasm
MDA-MB-231 [17] = assay: Phototoxicity against human MDA-MB-231 cells assessed as cell viability incubated with ROS scavenger NAC 1 hr before 2 J/cm2 light irradiation by MTT assay relative to control; type: functional
[18] = Induction of apoptosis in human MDA-MB-231 cells assessed as viable cells after 24 hrs by Annexin-V FITC/propidium iodide staining based flow cytometric analysis (reference value: 93.27%); type: cell-based; conditions: read-out: Activity
4T1 [19] = assay: Antitumor activity against mouse 4T1 cells xenografted in BALB/c mouse at 4 mg/kg, iv preincubated for 24 hrs and measured at day 22 post dose; type: functional, organism-based
Mus musculus [20] = assay: Toxicity in BALB/c mouse xenografted with mouse 4T1 cells assessed as effect on body weight at 4 mg/kg, iv measured at day 22 post last dose; type: organism-based; conditions: in vivo
Mus musculus [21] = assay: Toxicity in BALB/c mouse xenografted with mouse 4T1 cells assessed as effect on body weight at 4 mg/kg, iv pre-tretaed for 24 hrs followed by 50 J/cm2 light irradiation and measured at day 22 post dose; type: organism-based; conditions: in vivo
Mus musculus [22] = assay: Hepatotoxicity in BALB/c mouse xenografted with mouse 4T1 cells assessed as pathological changes in liver at 4 mg/kg, iv measured at day 22 post dose by hematoxylin and eosin staining based light microscopic analysis; type: toxicity, organism-based; conditions: in vivo
Mus musculus [23] = assay: Hepatotoxicity in BALB/c mouse xenografted with mouse 4T1 cells assessed as pathological changes in liver at 1 to 4 mg/kg, iv pre-tretaed for 24 hrs followed by 50 J/cm2 light irradiation and measured at day 22 post dose by hematoxylin and eosin staining based light microscopic analysis; type: toxicity, organism-based; conditions: in vivo
Mus musculus [24] = assay: Toxicity in BALB/c mouse xenografted with mouse 4T1 cells assessed as pathological changes in spleen at 1 to 4 mg/kg, iv pre-tretaed for 24 hrs followed by 50 J/cm2 light irradiation and measured at day 22 post dose by hematoxylin and eosin staining based light microscopic analysis; type: organism-based; conditions: in vivo
Mus musculus [25] = assay: Toxicity in BALB/c mouse xenografted with mouse 4T1 cells assessed as pathological changes in lung at 4 mg/kg, iv measured at day 22 post dose by hematoxylin and eosin staining based light microscopic analysis; type: organism-based; conditions: in vivo
MDA-MB-231 [26] = assay: Induction of ROS generation in human MDA-MB-231 cells incubated with DCF-DA probe for 30 mins by flow cytometric analysis (reference value: 5.81%); type: cell-based; conditions: mda-mb-231, 0.5 h
MDA-MB-231 [27] = assay: Induction of ROS generation in human MDA-MB-231 cells incubated with DCF-DA probe for 30 mins followed by 2 J/cm2 light irradiation and measured after 1 hr by flow cytometric analysis (reference value: 5.81%); type: functional

| SMILES | viability at 0.5 µM (4T1 [1]) [%] | inhibition in vivo at 4 mg/kg (4T1 [2]) [%] | Activity (MDA-MB-231 [3]) | inhibition in vivo at 2 mg/kg (4T1 [4]) [%] | Activity [5] | Activity [6] | inhibition in vivo at 1 mg/kg (4T1 [7]) [%] | selectivity ratio at 0.5 µM [8] | selectivity ratio at 0.5 µM [9] | Drug uptake [10] | Drug uptake [11] | Drug uptake [12] | Drug uptake [13] | Tmax [16] [h] | Activity (MDA-MB-231 [17]) [%] | viability at 24 h [18] [%] | Activity (Mus musculus [20]) | Activity (Mus musculus [21]) | Activity (Mus musculus [22]) | Activity (Mus musculus [23]) | also measured |
| --- | --- | --- | --- | --- | --- | --- | --- | --- | --- | --- | --- | --- | --- | --- | --- | --- | --- | --- | --- | --- | --- |
| C=CC1=C(C)c2cc3[nH]c(cc4nc(cc5[nH]c(cc1n2)c(C)c5CCC(=O)[O-])C(CCC(=O)[O-])=C4C)c(C)c3C(C)OCCCCCC.[Na+].[Na+] (centres undefined) | 76.1 | 45.4 | Active | 28 | Non-Toxic | Non-Toxic | 15.4 | 59.6 | 21.7 | Not Active | Not Active | Not Active | Active | 12 | >80 | 92.8 | Non-Toxic | Non-Toxic | Non-Toxic | Non-Toxic | Activity (MDA-MB-231 [14]): 2.21%; Activity (MDA-MB-231 [15]): 46.7%; Activity (4T1 [19]): inactive; Activity (Mus musculus [24]): Non-Toxic; Activity (Mus musculus [25]): Non-Toxic |
| C=Cc1c(C)c2cc3nc(cc4[nH]c(cc5nc(cc1[nH]2)C(C)=C5C(C)OCCCCCC)c(C)c4CCC(=O)[O-])C(CCC(=O)[O-])=C3C.[Na+].[Na+] (centres undefined) | 61.7 | 65.4 | Active | 43 | Non-Toxic | Non-Toxic | 27.8 | 161 | 68.5 | Not Active | Not Active | Not Active | Active | 12 | >80 | 93.4 | Non-Toxic | Non-Toxic | Non-Toxic | Non-Toxic | Activity (MDA-MB-231 [26]): 6.34%; Activity (MDA-MB-231 [27]): 87.84%; Activity (Mus musculus [24]): Non-Toxic; Activity (Mus musculus [25]): Non-Toxic |

Source: ChEMBL document CHEMBL4229478, “Synthesis, Characterization, and Biological Evaluation of a Porphyrin-Based Photosensitizer and Its Isomer for Effective Photodynamic Therapy against Breast Cancer” (J Med Chem, 2018)
